The results in this text go back to patent US20250051344A1, “BIFUNCTIONAL SELECTIVE DEGRADERS OF SMARCA2 AND THERAPEUTIC USES THEREOF” (Nurix Therapeutics, Inc., priority 2023, published 2025).

Structures are written as SMILES.

One experiment addresses T1, SMARCA4 (Homo sapiens, UniProt P51532).
T1 construct: endogenous in cells
Briefly: Cellular degradation assay, SMARCA4 (Table 1). It counts as cell-based.

For the next experiment, the target named is T2, SMARCA2 (Homo sapiens, UniProt P51531).
T2 construct: endogenous in cells
Briefly: SMARCA2 Cellular Degradation Assay (Western blot analysis on Jess platform). It is filed as cell-based. As to conditions: for DC50 / Dmax: cellular degradation; for Fold Selectivity SMARCA4/2: ratio DC50 SMARCA4 / DC50 SMARCA2. The method, boiled down:
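Cells recovered from tumors are lysed, cleared at 20,817×g, and protein is quantified by BCA. Equal protein (5 μg) is then probed on Jess for SMARCA2 and actin, and normalized SMARCA2 signal is reported against vehicle.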

T1 sequence (P51532 whole entry, species assumed): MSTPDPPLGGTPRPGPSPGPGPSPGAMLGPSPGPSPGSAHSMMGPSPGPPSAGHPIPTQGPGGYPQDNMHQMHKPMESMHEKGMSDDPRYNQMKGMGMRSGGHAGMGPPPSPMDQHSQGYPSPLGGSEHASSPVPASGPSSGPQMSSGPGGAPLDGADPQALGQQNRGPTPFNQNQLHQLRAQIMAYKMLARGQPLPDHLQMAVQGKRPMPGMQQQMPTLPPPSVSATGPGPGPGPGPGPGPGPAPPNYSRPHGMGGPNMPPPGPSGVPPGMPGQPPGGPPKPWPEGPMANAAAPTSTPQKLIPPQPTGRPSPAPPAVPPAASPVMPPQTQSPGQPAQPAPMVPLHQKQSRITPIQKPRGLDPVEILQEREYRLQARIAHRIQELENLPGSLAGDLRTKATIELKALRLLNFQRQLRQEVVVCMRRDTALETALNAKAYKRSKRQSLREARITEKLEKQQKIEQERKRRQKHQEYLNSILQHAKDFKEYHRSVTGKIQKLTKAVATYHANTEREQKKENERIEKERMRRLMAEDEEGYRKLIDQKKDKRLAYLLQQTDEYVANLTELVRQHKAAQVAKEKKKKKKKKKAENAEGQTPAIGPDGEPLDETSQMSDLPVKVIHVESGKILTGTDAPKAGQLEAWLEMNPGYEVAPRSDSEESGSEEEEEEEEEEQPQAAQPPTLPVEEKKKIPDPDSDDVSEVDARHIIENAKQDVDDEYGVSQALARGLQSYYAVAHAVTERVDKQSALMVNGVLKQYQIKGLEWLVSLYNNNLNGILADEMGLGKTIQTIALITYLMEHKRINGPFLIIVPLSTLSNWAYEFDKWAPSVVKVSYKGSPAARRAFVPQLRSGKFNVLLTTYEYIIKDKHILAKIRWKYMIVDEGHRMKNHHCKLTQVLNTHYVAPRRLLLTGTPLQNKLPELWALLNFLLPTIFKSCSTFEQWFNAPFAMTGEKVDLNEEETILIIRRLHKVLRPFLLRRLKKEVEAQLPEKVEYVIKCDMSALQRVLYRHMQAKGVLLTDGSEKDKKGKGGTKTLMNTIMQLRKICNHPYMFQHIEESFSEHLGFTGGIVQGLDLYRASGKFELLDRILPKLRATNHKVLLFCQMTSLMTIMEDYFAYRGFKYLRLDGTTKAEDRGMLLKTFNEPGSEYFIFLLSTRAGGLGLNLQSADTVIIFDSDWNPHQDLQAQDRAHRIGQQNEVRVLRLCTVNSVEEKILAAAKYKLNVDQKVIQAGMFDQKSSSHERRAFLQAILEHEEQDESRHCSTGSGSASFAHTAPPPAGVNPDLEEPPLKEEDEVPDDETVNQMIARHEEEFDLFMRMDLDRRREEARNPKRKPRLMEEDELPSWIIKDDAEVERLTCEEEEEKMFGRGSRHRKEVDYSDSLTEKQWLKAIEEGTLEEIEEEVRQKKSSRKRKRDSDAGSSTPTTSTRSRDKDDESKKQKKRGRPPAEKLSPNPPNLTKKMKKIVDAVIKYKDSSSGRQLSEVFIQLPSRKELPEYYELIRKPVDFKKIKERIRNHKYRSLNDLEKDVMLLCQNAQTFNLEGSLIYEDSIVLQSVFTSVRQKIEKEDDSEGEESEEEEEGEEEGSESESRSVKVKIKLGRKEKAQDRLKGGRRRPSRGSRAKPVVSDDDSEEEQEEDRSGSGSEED
T2 sequence (P51531 whole entry, species assumed): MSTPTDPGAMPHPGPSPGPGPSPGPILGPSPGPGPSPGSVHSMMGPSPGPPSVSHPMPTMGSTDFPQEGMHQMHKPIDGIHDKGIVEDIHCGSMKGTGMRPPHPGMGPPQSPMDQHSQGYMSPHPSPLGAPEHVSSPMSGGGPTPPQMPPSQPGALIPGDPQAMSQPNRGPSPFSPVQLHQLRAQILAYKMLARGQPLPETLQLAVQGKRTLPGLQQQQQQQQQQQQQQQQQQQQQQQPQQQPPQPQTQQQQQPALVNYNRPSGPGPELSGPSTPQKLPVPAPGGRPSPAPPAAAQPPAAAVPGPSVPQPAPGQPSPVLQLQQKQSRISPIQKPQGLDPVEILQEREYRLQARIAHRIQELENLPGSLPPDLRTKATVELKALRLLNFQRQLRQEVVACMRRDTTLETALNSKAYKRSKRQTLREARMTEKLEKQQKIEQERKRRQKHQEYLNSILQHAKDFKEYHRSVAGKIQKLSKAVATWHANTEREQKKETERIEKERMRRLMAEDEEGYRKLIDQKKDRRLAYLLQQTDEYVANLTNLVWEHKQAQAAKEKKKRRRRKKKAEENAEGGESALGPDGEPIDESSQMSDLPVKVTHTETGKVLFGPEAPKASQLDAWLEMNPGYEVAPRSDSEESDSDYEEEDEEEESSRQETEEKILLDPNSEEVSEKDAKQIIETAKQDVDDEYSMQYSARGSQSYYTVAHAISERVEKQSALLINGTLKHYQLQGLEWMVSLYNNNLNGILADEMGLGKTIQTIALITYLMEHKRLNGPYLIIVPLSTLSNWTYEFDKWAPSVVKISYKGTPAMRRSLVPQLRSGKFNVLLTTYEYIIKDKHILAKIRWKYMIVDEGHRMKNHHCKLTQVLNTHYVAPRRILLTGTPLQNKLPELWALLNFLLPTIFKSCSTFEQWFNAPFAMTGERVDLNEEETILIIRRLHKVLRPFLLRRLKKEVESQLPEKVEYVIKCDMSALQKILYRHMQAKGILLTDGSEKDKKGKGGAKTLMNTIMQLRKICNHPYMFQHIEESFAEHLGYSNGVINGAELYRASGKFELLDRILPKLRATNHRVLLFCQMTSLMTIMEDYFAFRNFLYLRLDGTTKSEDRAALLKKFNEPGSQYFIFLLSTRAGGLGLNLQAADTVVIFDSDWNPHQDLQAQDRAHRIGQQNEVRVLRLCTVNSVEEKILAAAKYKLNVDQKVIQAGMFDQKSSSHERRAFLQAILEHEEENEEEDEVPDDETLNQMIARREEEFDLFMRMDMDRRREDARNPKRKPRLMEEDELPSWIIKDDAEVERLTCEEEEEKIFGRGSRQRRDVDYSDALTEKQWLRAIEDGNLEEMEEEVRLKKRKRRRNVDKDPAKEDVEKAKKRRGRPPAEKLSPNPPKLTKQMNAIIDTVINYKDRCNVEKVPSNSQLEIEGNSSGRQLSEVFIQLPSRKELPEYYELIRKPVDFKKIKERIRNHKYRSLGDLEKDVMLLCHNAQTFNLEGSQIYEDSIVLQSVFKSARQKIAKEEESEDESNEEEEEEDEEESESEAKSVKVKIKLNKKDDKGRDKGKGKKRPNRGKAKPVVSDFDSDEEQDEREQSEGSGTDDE

A word on the DC50: it is the concentration at which degradation of the target reaches its halfway point. A lower DC50 goes with a more potent degrader. A word on the Dmax: it is the largest share of the target that was removed. A high value points to a fuller loss of target. At SMARCA4, `COC1(C(=O)N(C)C2CCN(CCC3CCN(c4cccc5c4n(C)c(=O)n5C4CCC(=O)NC4=O)CC3)CC2)CCN(c2cnnc(-c3ccccc3O)c2)CC1` (racemic) [Example 68, rac-N-(1-(2-(1-(1-(2,6-dioxopiperidin-3-yl)-3-methyl-2-oxo-2,3-dihydro-1H-benzo[d]imidazol-4-yl)piperidin-4-yl)ethyl)piperidin-4-yl)-1-(6-(2-hydroxyphenyl)pyridazin-4-yl)-4-methoxy-n-methylpiperidine-4-carboxamide] returned a DC50 of 19.2 nM and a Dmax of 66.9%. Also, at SMARCA2, half-maximal degradation (DC50) was put at 0.57 nM, the Dmax came out at 93.2% and the “Fold Selectivity SMARCA4/2” value was found to be 34.

With `O=C1CCC(c2ccc(N3CCC4(CC3)CC(CN3CC5(CCN(C(=O)C6(c7ccccc7)CCN(c7cnnc(-c8ccccc8O)c7)CC6)CC5)C3)C4)cc2)C(=O)N1` (racemic) [Example 137, rac-(3R)-3-(4-{2-[(7-{1-[6-(2-hydroxyphenyl)pyridazin-4-yl]-4-phenylpiperidine-4-carbonyl}-2,7-diazaspiro[3.5]nonan-2-yl)methyl]-7-azaspiro[3.5]nonan-7-yl}phenyl)piperidine-2,6-dione], the Dmax on SMARCA4 was 44.9%. Besides, on SMARCA2, the DC50 is 44.4 nM, the Dmax was determined as 66.3% and the “Fold Selectivity SMARCA4/2” value came out at 225.

On to `O=C1CCC(c2ccc(N3CCC(F)(CN4CCC(NC(=O)C5(c6ccccc6)CCN(c6cnnc(-c7ccccc7O)c6)CC5)CC4)CC3)cc2)C(=O)N1` (racemic) [Example 179, rac-N-{1-[(1-{4-[(3R)-2,6-dioxopiperidin-3-yl]phenyl}-4-fluoropiperidin-4-yl)methyl]piperidin-4-yl}-1-[6-(2-hydroxyphenyl)pyridazin-4-yl]-4-phenylpiperidine-4-carboxamide], for which, at SMARCA4, it took 211 nM to reach half-maximal degradation (DC50) and the Dmax was 57.7%. For the same molecule, at SMARCA2, the DC50 came out at 17.9 nM, the Dmax came to 83.4% and the “Fold Selectivity SMARCA4/2” value is reported as 12.

As to `COc1cccc(C2(C(=O)NC3CCN(CC4CCN(c5ccc([C@H]6CCC(=O)NC6=O)cc5)CC4)C4(CCC4)C3)CCN(c3cnnc(-c4ccccc4O)c3)CC2)c1` (stereo partly drawn) [Example 169, N-{5-[(1-{4-[(3R)-2,6-dioxopiperidin-3-yl]phenyl}piperidin-4-yl)methyl]-5-azaspiro[3.5]nonan-8-yl}-1-[6-(2-hydroxyphenyl)pyridazin-4-yl]-4-(3-methoxyphenyl)piperidine-4-carboxamide], at SMARCA4, the DC50 was determined as 104 nM and the Dmax was 62%. For the same molecule, at SMARCA2, half-maximal degradation (DC50) was put at 6.28 nM, the Dmax was found to be 86.6% and the “Fold Selectivity SMARCA4/2” value is 17.

At SMARCA4, `Cc1cnn(C2(C(=O)N(C)C3CCN(CC4CCN(c5ccc([C@H]6CCC(=O)NC6=O)cc5)CC4)CC3)CCN(c3cnnc(-c4ccccc4O)c3)CC2)c1` [Example 154, N-{1-[(1-{4-[(3R)-2,6-dioxopiperidin-3-yl]phenyl}piperidin-4-yl)methyl]piperidin-4-yl}-1-[6-(2-hydroxyphenyl)pyridazin-4-yl]-N-methyl-4-(4-methyl-1H-pyrazol-1-yl)piperidine-4-carboxamide] yielded a DC50 of 22.3 nM and a Dmax of 65.6%. On SMARCA2, it took 2.87 nM to reach half-maximal degradation (DC50), the Dmax was 87.7% and the “Fold Selectivity SMARCA4/2” value came to 8.

At SMARCA4, `COc1ccccc1C1(C(=O)N2CC3(C2)CN(C2COC4(CCN(c5ccc([C@H]6CCC(=O)NC6=O)cc5)CC4)C2)C3)CCN(c2cnnc(-c3ccccc3O)c2)CC1` (mixture of isomers) [Example 106, (3R)-3-{4-[(3RS)-3-(6-{1-[6-(2-hydroxyphenyl)pyridazin-4-yl]-4-(2-methoxyphenyl)piperidine-4-carbonyl}-2,6-diazaspiro[3.3]heptan-2-yl)-1-oxa-8-azaspiro[4.5]decan-8-yl]phenyl}piperidine-2,6-dione] yielded a DC50 of 32.2 nM and a Dmax of 59.4%. In addition, on SMARCA2, half-maximal degradation (DC50) was put at 4.91 nM, the Dmax was found to be 78.3% and the “Fold Selectivity SMARCA4/2” value is 7.

At SMARCA4, `O=C1CC[C@H](c2ccc(N3CCC(CN4CC5(CCN(C(=O)C6(c7ccccc7)CCN(c7cnnc(-c8ccccc8O)c7)CC6)C5)C4)CC3)cc2)C(=O)N1` [Example 16, (3R)-3-(4-{4-[(6-{1-[6-(2-hydroxyphenyl)pyridazin-4-yl]-4-phenylpiperidine-4-carbonyl}-2,6-diazaspiro[3.4]octan-2-yl)methyl]piperidin-1-yl}phenyl)piperidine-2,6-dione] came in with a DC50 of 5020 nM and a Dmax of 56.1%. Besides, on SMARCA2, the DC50 worked out at 7.48 nM, the Dmax came to 82.6% and the “Fold Selectivity SMARCA4/2” value is listed as 671.32.

Regarding `C[C@H](Oc1ccc(C2CCC(=O)NC2=O)cc1)C1CCN(C(=O)C2(c3ccccc3)CCN(c3cnnc(-c4ccccc4O)c3)CC2)CC1` (mixture of isomers) [Example 2, (3RS)-3-{4-[(1S)-1-(1-{1-[6-(2-hydroxyphenyl)pyridazin-4-yl]-4-phenylpiperidine-4-carbonyl}piperidin-4-yl)ethoxy]phenyl}piperidine-2,6-dione], the Dmax on SMARCA4 came to 22.1%. For the same molecule, on SMARCA2, the Dmax came out at 53.5% and the “Fold Selectivity SMARCA4/2” value is 1.

With `Cn1ccc(OC2(C(=O)N3CC4(CN(CCC5CCN(c6cccc7c6n(C)c(=O)n7C6CCC(=O)NC6=O)CC5)C4)C3)CCN(c3cnnc(-c4ccccc4O)c3)CC2)n1` (racemic) [Example 67, rac-3-(4-(4-(2-(6-(1-(6-(2-hydroxyphenyl)pyridazin-4-yl)-4-((1-methyl-1H-pyrazol-3-yl)oxy)piperidine-4-carbonyl)-2,6-diazaspiro[3.3]heptan-2-yl)ethyl)piperidin-1-yl)-3-methyl-2-oxo-2,3-dihydro-1h-benzo[d]imidazol-1-yl)piperidine-2,6-dione], on SMARCA4, the DC50 amounted to 20.4 nM and the maximal degradation (Dmax) turned out to be 72.9%. Besides, on SMARCA2, the DC50 is 0.4 nM, the Dmax came out at 96.2% and the “Fold Selectivity SMARCA4/2” value turned out to be 51.

`O=C1CC[C@H](c2ccc(C3CCN(CC(=O)N4CCC(S(=O)(=O)NCC5(c6ccccc6)CCN(c6cnnc(-c7ccccc7O)c6)CC5)CC4)CC3)cc2)C(=O)N1` (racemic) [Example 109, rac-1-(2-(4-(4-(2,6-dioxopiperidin-3-yl)phenyl)piperidin-1-yl)acetyl)-n-((1-(6-(2-hydroxyphenyl)pyridazin-4-yl)-4-phenylpiperidin-4-yl)methyl)piperidine-4-sulfonamide]: at SMARCA4, the DC50 came to 498 nM and the Dmax was 67.1%. At SMARCA2, the DC50 was found to be 76.9 nM, the Dmax was 82.7% and the “Fold Selectivity SMARCA4/2” value is 6.

In the case of `Cn1c(=O)n([C@H]2CCC(=O)NC2=O)c2cccc(N3CCC(C(=O)N4C[C@@H]5[C@H](C4)[C@H]5C(=O)NCC4(c5ccccc5)CCN(c5cnnc(-c6ccccc6O)c5)CC4)CC3)c21` (racemic) [Example 72, (1r,5s,6r)-3-(1-(1-((rs)-2,6-dioxopiperidin-3-yl)-3-methyl-2-oxo-2,3-dihydro-1h-benzo[d]imidazol-4-yl)piperidine-4-carbonyl)-n-((1-(6-(2-hydroxyphenyl)pyridazin-4-yl)-4-phenylpiperidin-4-yl)methyl)-3-azabicyclo[3.1.0]hexane-6-carboxamide], on SMARCA4, it took 25.9 nM to reach half-maximal degradation (DC50) and the Dmax was determined as 75.4%. Moreover, on SMARCA2, the DC50 came out at 0.61 nM, the Dmax turned out to be 95.8% and the “Fold Selectivity SMARCA4/2” value was found to be 42.

On SMARCA4, `O=C1CCC(Nc2ccc(C3CCN(CC4CCC45CN(C(=O)C4(c6ccccc6)CCN(c6cnnc(-c7ccccc7O)c6)CC4)C5)CC3)cc2)C(=O)N1` (racemic) [Example 177, rac-(3R)-3-[(4-{1-[(2-{1-[6-(2-hydroxyphenyl)pyridazin-4-yl]-4-phenylpiperidine-4-carbonyl}-2-azaspiro[3.3]heptan-5-yl)methyl]piperidin-4-yl}phenyl)amino]piperidine-2,6-dione] had a DC50 of 21.6 nM and a Dmax of 54.5%. Besides, on SMARCA2, the DC50 is 3.53 nM, the Dmax was found to be 71.5% and the “Fold Selectivity SMARCA4/2” value came out at 6.

At SMARCA4, `CN(C(=O)C1(c2cc3ccccn3n2)CCN(c2cnnc(-c3ccccc3O)c2)CC1)C1CCN(CC2CCN(c3ccc(C4CCC(=O)NC4=O)cc3)CC2)CC1` (racemic) [Example 97, rac-N-{1-[(1-{4-[(3R)-2,6-dioxopiperidin-3-yl]phenyl}piperidin-4-yl)methyl]piperidin-4-yl}-1-[6-(2-hydroxyphenyl)pyridazin-4-yl]-N-methyl-4-{pyrazolo[1,5-a]pyridin-2-yl}piperidine-4-carboxamide] gave a DC50 of 20.7 nM and a Dmax of 65.8%. On SMARCA2, the DC50 came to 3.14 nM, the Dmax was 86.6% and the “Fold Selectivity SMARCA4/2” value amounted to 7.

As for `O=C1CC[C@@H](c2ccc(N3CCC(CN4CCC5(C4)CN(C(=O)C4(c6ccccc6)CCN(c6cnnc(-c7ccccc7O)c6)CC4)C5)CC3)cc2)C(=O)N1` [Example 9, (3S)-3-(4-{4-[(2-{1-[6-(2-hydroxyphenyl)pyridazin-4-yl]-4-phenylpiperidine-4-carbonyl}-2,6-diazaspiro[3.4]octan-6-yl)methyl]piperidin-1-yl}phenyl)piperidine-2,6-dione], on SMARCA4, it took 6720 nM to reach half-maximal degradation (DC50) and the Dmax stood at 44.7%. Also, at SMARCA2, it took 19.9 nM to reach half-maximal degradation (DC50), the Dmax came to 75.2% and the “Fold Selectivity SMARCA4/2” value is on record as 336.59.

On SMARCA4, `CCCN(C(=O)C1(c2ccccc2)CCN(c2cnnc(-c3ccccc3O)c2)CC1)C1CCN(CCC2CCN(c3ccc([C@H]4CCC(=O)NC4=O)cc3)CC2)CC1` [Example 100, N-{1-[2-(1-{4-[(3R)-2,6-dioxopiperidin-3-yl]phenyl}piperidin-4-yl)ethyl]piperidin-4-yl}-1-[6-(2-hydroxyphenyl)pyridazin-4-yl]-4-phenyl-n-propylpiperidine-4-carboxamide] had a DC50 of 115 nM and a Dmax of 66.4%. On SMARCA2, the DC50 came out at 3.4 nM, the Dmax stood at 92.4% and the “Fold Selectivity SMARCA4/2” value was 34.
